# From publication PMC9481557, “Enzymatic synthesis of benzylisoquinoline alkaloids using a parallel cascade strategy and tyrosinase variants” (Nature Communications, 2022)
# Columns and labels:
# EfTyrDC = molecular target: T1, EfTyrDC (Enterococcus faecalis, UniProt Q838D6); assay: HPLC conversion; type: biochemical; conditions: PLP, HEPES pH 7.5, 37 °C, 6 h; coupled with CvTAm
# T1 construct: gene tdc; recombinant in E. coli BL21(DE3)
# CvTAm = molecular target: T2, CvTAm (Chromobacterium violaceum, UniProt Q7NWG4); assay: HPLC conversion; type: biochemical; conditions: amine donor; pyruvate acceptor, PLP, HEPES pH 7.5, 37 °C, 6 h
# T2 construct: gene CV_2025; recombinant in E. coli BL21(DE3)
# NCCc1ccc(O)cc1 = assay: cells, lysate or membranes; type: cell-based, Candidatus Nitrosopumilus salarius; conditions: apparent constant; N201S variant; copper enzyme; assay details in supplement
# T1 sequence (Q838D6 whole entry): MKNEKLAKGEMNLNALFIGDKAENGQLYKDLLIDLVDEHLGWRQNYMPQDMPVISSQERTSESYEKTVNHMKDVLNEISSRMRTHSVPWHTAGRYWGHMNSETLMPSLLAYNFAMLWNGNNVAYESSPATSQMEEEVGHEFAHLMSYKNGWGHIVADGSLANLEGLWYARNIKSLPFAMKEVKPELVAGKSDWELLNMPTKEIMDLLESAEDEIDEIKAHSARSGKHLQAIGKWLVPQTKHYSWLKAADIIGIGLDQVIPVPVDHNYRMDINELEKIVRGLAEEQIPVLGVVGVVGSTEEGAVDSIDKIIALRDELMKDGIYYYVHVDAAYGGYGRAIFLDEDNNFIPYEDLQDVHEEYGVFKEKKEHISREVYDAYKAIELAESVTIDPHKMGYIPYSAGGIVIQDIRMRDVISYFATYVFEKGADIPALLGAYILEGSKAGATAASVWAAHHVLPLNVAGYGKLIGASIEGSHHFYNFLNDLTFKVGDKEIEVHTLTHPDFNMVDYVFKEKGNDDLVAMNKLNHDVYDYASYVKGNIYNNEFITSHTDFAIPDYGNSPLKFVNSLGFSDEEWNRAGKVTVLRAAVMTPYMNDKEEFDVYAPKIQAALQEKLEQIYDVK
# T2 sequence (Q7NWG4 entry or part of it): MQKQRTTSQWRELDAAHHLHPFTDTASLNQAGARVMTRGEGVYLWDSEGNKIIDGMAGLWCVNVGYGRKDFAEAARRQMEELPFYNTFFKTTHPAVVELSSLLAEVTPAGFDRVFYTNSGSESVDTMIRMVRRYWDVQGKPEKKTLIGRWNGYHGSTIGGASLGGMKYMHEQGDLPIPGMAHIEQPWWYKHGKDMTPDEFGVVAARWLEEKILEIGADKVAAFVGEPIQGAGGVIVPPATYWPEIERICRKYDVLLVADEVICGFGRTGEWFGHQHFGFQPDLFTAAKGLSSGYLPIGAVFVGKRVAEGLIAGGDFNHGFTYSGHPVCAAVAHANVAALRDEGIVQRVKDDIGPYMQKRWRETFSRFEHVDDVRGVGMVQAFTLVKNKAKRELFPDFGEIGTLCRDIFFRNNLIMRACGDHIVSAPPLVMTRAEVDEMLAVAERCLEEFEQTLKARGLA
compound,measurement,setting,value
"N[C@@H](Cc1cccc(O)c1)C(=O)O [compound 9, meta-L-tyrosine]",HPLC conversion,EfTyrDC,All of the selected substrates were readily accepted by EfTyrDC and CvTAm
"N[C@@H](Cc1ccc(O)c(Cl)c1)C(=O)O [compound 12, 3-Cl-L-tyrosine]",HPLC conversion,EfTyrDC,All of the selected substrates were readily accepted by EfTyrDC and CvTAm
"NCCCc1ccccc1 [compound 14, 3-phenyl-1-propylamine]",HPLC conversion,CvTAm,All of the selected substrates were readily accepted by EfTyrDC and CvTAm
CnTYR (Candidatus Nitrosopumilus salarius BD31; N201S),Km,NCCc1ccc(O)cc1,1780 µM
same,kcat,NCCc1ccc(O)cc1,197.5 s⁻¹
